Data taken from patent US20110207154A1, “METHOD FOR DETERMINATION OF MARIN[…] AND COMPOUNDS […] SUCH METHOD” (SCOTT & WHITE HEALTHCARE, priority 2010, published 2011).

Test system: our antisera (rabbit polyclonal antisera against BSA-MBG conjugate)
Assay: competition ELISA with rabbit polyclonal anti-MBG antisera
Format: binding
Conditions: competition assay
Description: Initially, both BSA and BLG were employed as the carrier protein. In the former case, excess BSA was added to the reaction mixture to inhibit anti-BSA antibodies from binding to the conjugate. When the BLG-marinobufagenin congugate became available, BLG-marinobufagenin was used for antibody detection. This ELISA format was used as the basis for a competitive ELISA for the detection of marinobufagenin in body specimens.
In an alternative approach, rabbits were immunized with the BSA-MBG conjugate for the production of polyclonal antisera. […] The resulting polyclonal sera were assessed for the presence of MBG-specific antibodies by ELISA (FIG. 11). In this particular format, two of the rabbits produced a strong humoral immune response that allowed dilution of the primary (rabbit) antiserum down to 1 in 4*10^6, even when using a relatively insensitive photometric readout. […] This particular assay has now been equipped with a chemifluorescent readout (using commercially available reagents) and has now reached the target sensitivity of less than 10 pg MBG/ml. As expected, rat urine samples can be measured without prior treatment, but rat plasma and/or serum samples require solid phase extraction using a C8 solid phase and acetonitrile in the mobile phase. Upon drying the eluate of obtained from the extraction cartridge by vacuum centrifugation, MBG can be measured in the circulation of the rat.

Question: Which cross-reactivity with antisera does the source give for `C[C@]12CC[C@H](O)C[C@H]1CC[C@@H]1[C@@H]2CC[C@]2(C)[C@@H](c3ccc(=O)oc3)C[C@H]3O[C@]132` [RBG, resibufogenin] here?
Answer: Its cross-reactivity with antisera is “only measurable at extremely high doses”.
